Measurements taken from US5817651A, “3-arylcarbonyl-1-(C-attached-N-heteryl)-1H-indoles” (Sanofi, priority 1997, dated 1998).
Where a name gives a salt, the structure may show the parent alone. Read-outs that look alike come from different tables or passages of the source.

How the values were obtained:
Assay type in all cases: in vivo
[1] = system: acetylcholine-induced abdominal constriction; assay: acetylcholine-induced abdominal constriction test (ACH); conditions: mice; for inhibition in vivo at 100 mg/kg / ED50: Mus musculus; for inhibition in vivo at 100 mg/kg: dose level 100, read-out: ACH percent inhibition at dose 100
Text: J. Pharmacol. Chemotherap. 32, 295 (1968); a modification of the anti-bradykinin test, which is also a primary analgesic screening procedure, described by Berkowitz et al., J. Pharmacol. Exptl. Therap. 177, 500-508 (1971), Blane et al., J. Pharm. Pharmacol. 19, 367-373 (1967), Botha et al., Eur. J. Pharmacol. 6, 312-321 (1969) and Deffenu et al., J. Pharm. Pharmacol. 18, 135 (1966); and the Randall-Selitto analgesic test described by Randall and Selitto, Arch. Int. Pharmacodyn., 111, 409-419 (1957).
Data in the developing adjuvant arthritis (AA) and plasma fibronectin (FN) assays are expressed as percent inhibition, i.e. inhibition of non-injected paw inflammation (NIP) and injected paw (RPV) and lowering of plasma fibronectin, the asterisks * and ** indicating statistical significance at the p<0.01 and p<0.05 levels, respectively. […] Non-statistically significant results are recorded as "------ ". In the acetylcholine-induced abdominal constriction test, the test compounds were administered either as suspensions in gum tragacanth (GT) or as aqueous solutions prepared by addition of just sufficient dilute aqueous methanesulfonic acid (MS) or dilute aqueous lactic acid (LA) to dissolve the compound. The compounds are identified by the example number above where their preparations are described. All data in the anti-bradykinin, rat writhing and Randall-Selitto tests were obtained on oral administration.

[2] = system: acetic acid-induced writhing; assay: acetic acid-induced writhing assay in the rat (RW); conditions: oral administration
Procedure: (§1) Data in the developing adjuvant arthritis (AA) and plasma fibronectin (FN) assays are expressed as percent inhibition, i.e. inhibition of non-injected paw inflammation (NIP) and injected paw (RPV) and lowering of plasma fibronectin, the asterisks * and ** indicating statistical significance at the p<0.01 and p<0.05 levels, respectively. Compounds are considered active at p<0.05 level. Non-statistically significant results are recorded as "------ ". In the acetylcholine-induced abdominal constriction test, the test compounds were administered either as suspensions in gum tragacanth (GT) or as aqueous solutions prepared by addition of just sufficient dilute aqueous methanesulfonic acid (MS) or dilute aqueous lactic acid (LA) to dissolve the compound. The compounds are identified by the example number above where their preparations are described. All data in the anti-bradykinin, rat writhing and Randall-Selitto tests were obtained on oral administration.

[3] = system: adjuvant induced arthritis; assay: developing adjuvant arthritis (AA) assay; parameters: key: Non-statistically significant results are recorded as "------ "; conditions: arthritic rats; printed * = p<0.01, ** = p<0.05
Procedure: Antirheumatic and anti-inflammatory activities of the compounds of the invention were determined using the developing adjuvant arthritis assay in rats and the plasma fibronectin assay in arthritic rats. The developing adjuvant arthritis assay was used in conjunction with the plasma fibronectin assay as a primary screening method in the evaluation of compounds for potential use as disease modifying anti-rheumatic drugs. The procedure used to induce arthritis in rats is a modification of the methods published by Pearson, J. Chron. Dis. 16, 863-874 (1973) and by Glenn et al., Amer. J. Vet. Res. 1180-1193 (1965). Adjuvant induced arthritis bears many of the traits of rheumatoid arthritis. It is a chronic, progressive, deforming arthritis of the peripheral joints, with a primary mononuclear cell response consisting of bone and joint space invasion by pannus. In order to detect disease modifying anti-rheumatic drug activity, drug treatment is started before the disease has become irrevocably established. Since such drugs are not designed to be administered prophylactically, drug treatment of adjuvant arthritis is initiated at a time when the disease is developing but is not yet irreversible. Animals develop significant systemic arthritic disease which can be measured by swelling of the non-injected rear paw (NIP) 15 to 20 days following an initial injection on day 1 of complete Freund's adjuvant into the right hindfoot paw.
as §1

[4] = Table 9, Examples, no route marked in the cell, read-out: ACH ED50

Cc1cc2ccccc2n1CC1CN(C)CCO1 (racemic) [Preparation 1A, 1-[(4-methyl-2-morpholinyl)methyl]-2-methyl-1H-indole]
inhibition in vivo at 100 mg/kg ([1]; Table 10, Prepn. No.): 10%

Cc1c(C(=O)c2ccccc2F)c2ccccc2n1C[C@@H]1CC[C@@H](C)N1C (relative stereo) [Example 1AD]
ED50 [1, 4]: 34 mg/kg

COc1ccc(C(=O)c2c(C)n(C[C@@H]3CC[C@@H](C)N3Cc3ccccc3)c3ccccc23)cc1 (relative stereo) [Example 1AE]
inhibition in vivo at 100 mg/kg ([1]; Table 9): 30%

COc1ccc(C(=O)c2c(C)n(CC3CCCN3C)c3ccccc23)cc1 (single isomer, unassigned) [2E(1), (1)1-(1-methyl-2-pyrrolidinylmethyl)-2-methyl-3-(4-methoxybenzoyl)-1H-indle hydrochloride]
ACH ED50 ([1]; Table 9, Examples, no route marked in the cell, hydrochloride): 35 mg/kg | RW ED50 ([2]; hydrochloride): 13 mg/kg

COc1ccc(C(=O)c2c(C)n(CC3CCCN3C)c3ccccc23)cc1 (single isomer, unassigned) [2E(d), (d)1-(1-methyl-2-pyrrolidinylmethyl)-2-methyl-3-(4-methoxy-benzoyl)-1H-inole hydorochloride]
ED50 [1, 4]: 47 mg/kg | ACH ED50 ([1]; Table 9, Examples, no route marked in the cell): 36 mg/kg | RW ED50 [2]: 30 mg/kg

COc1ccc(C(=O)c2c(C)n(C3CCCN(C)C3)c3ccccc23)cc1 (stereo not shown) [2AG(b)]
ED50 [1, 4]: 30 mg/kg

COc1ccc(C(=O)c2c(C)n(CC3CCCN3Cc3ccccc3)c3ccccc23)cc1 (stereo not shown) [Example 1AG]
inhibition in vivo at 100 mg/kg ([1]; Table 9): 0%

COc1ccc(C(=O)c2c(C)n(C3CCN(C)CC3)c3ccccc23)cc1 [Example 1B]
NIP: percent inhibition of non-injected paw inflammation [3]: 88% | RPV: percent inhibition of injected paw [3]: 65% | ED50 [1, 4]: 69 mg/kg

Cc1c(C(=O)c2ccc(O)cc2)c2ccccc2n1CC1CN(C)CCO1 (stereo not shown) [Example 1D]
inhibition in vivo at 100 mg/kg ([1]; Table 9): 10%

COc1ccc(C(=O)c2cn(CC3CCCN(C)C3)c3ccc(F)cc23)cc1 (stereo not shown) [Example 1H]
NIP: percent inhibition of non-injected paw inflammation [3]: 92% | RPV: percent inhibition of injected paw [3]: 63% | inhibition in vivo at 100 mg/kg ([1]; Table 9): 20%

Cc1c(C(=O)c2ccc(Cl)cc2)c2ccccc2n1CC1CCCN(C)C1 (stereo not shown) [Example 1L]
NIP: percent inhibition of non-injected paw inflammation [3]: 83% | RPV: percent inhibition of injected paw [3]: 60% | ED50 [1, 4]: 62 mg/kg

Cc1c(C(=O)c2cccc(F)c2)c2ccccc2n1CC1CCCN(C)C1 (stereo not shown) [Example 1O]
ED50 [1, 4]: 71 mg/kg

CN1CCCC(Cn2cc(C(=O)c3ccccc3)c3ccccc32)C1 (stereo not shown) [Example 1Q]
ED50 [1, 4]: 45 mg/kg

CN1CCCCC(n2cc(C(=O)c3cccc4ccccc34)c3ccccc32)C1 (stereo not shown) [Example 1R]
inhibition in vivo at 100 mg/kg ([1]; Table 9): 20%

COc1ccc(C(=O)c2c(C(C)C)n(CC3CCCN(C)C3)c3ccc(F)cc23)cc1 (stereo not shown) [Example 1S]
NIP: percent inhibition of non-injected paw inflammation [3]: 73% | RPV: percent inhibition of injected paw [3]: 36% | ED50 [1, 4]: 21 mg/kg

COc1cccc(C(=O)c2c(C)n(CC3CCCN(C)C3)c3ccccc23)c1 (stereo not shown) [Example 1T]
ED50 [1, 4]: 64 mg/kg

COc1ccc(C(=O)c2c(C(C)C)n(CC3CCCN(C)C3)c3ccccc23)cc1 (stereo not shown) [Example 1U]
ED50 [1, 4]: 22 mg/kg

COc1ccc(C(=O)c2c(C)n(C3CCN(Cc4ccccc4)C3)c3ccccc23)cc1 (stereo not shown) [Example 1W]
inhibition in vivo at 100 mg/kg ([1]; Table 9): 35%

COc1ccc(C(=O)c2c(C)n(CCC3CCCN3C)c3ccc(F)cc23)cc1 (stereo not shown) [Example 2A, 5-fluoro-2-methyl-1-[2-(1-methyl-2-pyrrolidinyl)ethyl]-3-(4-methoxybenzoyl)-1H-indole hydrochloride hemihydrate]
NIP: percent inhibition of non-injected paw inflammation [3]: 86% | RPV: percent inhibition of injected paw [3]: 69% | ED50 [1, 4]: 32 mg/kg

CN1CCCC(Cn2cc(C(=O)c3ccccc3F)c3ccccc32)C1 (stereo not shown) [Example 2AA]
ED50 [1, 4]: 65 mg/kg

CN1CCCCC(n2cc(C(=O)c3ccccc3F)c3ccccc32)C1 (stereo not shown) [Example 2AD]
inhibition in vivo at 100 mg/kg ([1]; Table 9): 20%

COc1ccc(C(=O)c2c(C)n(CC3CN(C(c4ccccc4)c4ccccc4)C3)c3ccccc23)cc1 [Example 2AL]
inhibition in vivo at 100 mg/kg ([1]; Table 9): 20%

Cc1c(C(=O)c2ccc([N+](=O)[O-])cc2)c2ccccc2n1CC1CCCN(C)C1 (stereo not shown) [Example 2AN]
inhibition in vivo at 100 mg/kg ([1]; Table 9): 30%

COc1ccc(C(=O)c2cn(CCC3CCCN3C)c3ccc(F)cc23)cc1 (stereo not shown) [Example 2C]
NIP: percent inhibition of non-injected paw inflammation [3]: 55% | RPV: percent inhibition of injected paw [3]: 27% | ED50 [1, 4]: 49 mg/kg

CCc1ccc(C(=O)c2c(C)n(CC3CCCN(C)C3)c3ccccc23)cc1 (stereo not shown) [Example 2N]
ED50 [1, 4]: 46 mg/kg

COc1ccc(C(=O)c2cn(CCC3CCCN3C)c3ccccc23)cc1 (stereo not shown) [Example 2S]
NIP: percent inhibition of non-injected paw inflammation [3]: 33% | RPV: percent inhibition of injected paw [3]: 21% | ED50 [1, 4]: 50 mg/kg

COc1ccc(C(=O)c2c(C)n(CC3CCCN(Cc4ccccc4)C3)c3ccccc23)cc1 (stereo not shown) [Example 2T]
NIP: percent inhibition of non-injected paw inflammation [3]: 92% | RPV: percent inhibition of injected paw [3]: 68% | ACH percent inhibition at dose 300 ([1]; Table 9, dose level 300): 20%

CCN1CCCC1Cn1c(C)c(C(=O)c2ccc(OC)cc2)c2ccccc21 (stereo not shown) [Example 2Y]
NIP: percent inhibition of non-injected paw inflammation [3]: 46% | RPV: percent inhibition of injected paw [3]: 15% | ED50 [1, 4]: 43 mg/kg

COc1ccc(C(=O)c2c(C)n(C3CSCCN(C)C3)c3ccccc23)cc1 (stereo not shown) [Example 3B]
inhibition in vivo at 100 mg/kg ([1]; Table 9): 60%

COc1ccc(C(=O)c2c(C)n(CC3CN(C)CCS3)c3ccccc23)cc1 (stereo not shown) [Example 3C]
ED50 [1, 4]: 30 mg/kg

CN1CCCC(n2cc(C(=O)c3ccccc3F)c3ccccc32)C1 (stereo not shown) [Example 4D]
NIP: percent inhibition of non-injected paw inflammation [3]: 80% | RPV: percent inhibition of injected paw [3]: -- | ACH percent inhibition at dose 10 ([1]; Table 9, dose level 10): 65% | ACH percent inhibition at dose 30 ([1]; Table 9, dose level 30): 50%

CC(C1CCCNC1)n1cc(C(=O)c2ccccc2F)c2ccccc21 (stereo not shown) [Example 4E]
ED50 [1, 4]: 43 mg/kg

COc1ccc(C(=O)c2c(C)n(CC3C[S+]([O-])CCN3C)c3ccccc23)cc1 (stereo not shown) [Example 6B, 2-methyl-3-(4-methoxybenzoyl)-1-[(4-methyl-3-thiomorpholinyl)methyl]-1H-indole-S-oxide]
ED50 [1, 4]: 5 mg/kg

CCCN1CCCC(Cn2c(C)c(C(=O)c3ccc(OC)cc3)c3ccccc32)C1 (stereo not shown) [Example 7, 2-methyl-3-(4-methoxybenzoyl)-1-[(1-propyl-3-piperidinyl)methyl]-1H-indolehydrochloride]
ED50 [1, 4]: 18 mg/kg

COc1ccc(C(=O)c2c(C)n(C3CCNC3)c3ccccc23)cc1 (stereo not shown) [Example 8B]
ED50 [1, 4]: 29 mg/kg

COc1ccc(C(=O)c2c(C)n(CC3COCCN3C)c3ccccc23)cc1 (stereo not shown) [Example 10B, 2-methyl-3-(4-methoxybenzoyl)-1-[(4-methyl-3-morpholinyl)methyl]-1H-indole]
ED50 [1, 4]: 29 mg/kg

CN1CCCC(Cn2ccc3cc(F)ccc32)C1 (stereo not shown) [Preparation 1D, 1-[(1-methyl-3-piperidinyl)methyl]-5-fluoro-1H-indole]
ED50 ([1]; Table 10, Prepn. No. (intermediates of formula II), no route marked, read-out: ACH ED50): 65 mg/kg

Cc1cc2ccccc2n1CC1CCCN(C)C1.Cl (stereo not shown) [Preparation 1P, 2-methyl-1-[(1-methyl-3-piperidinyl)methyl]-1H-indole hydrochloride]
ED50 ([1]; iv, Table 10, Prepn. No., i.v., read-out: ACH ED50 (i.v.)): 9.7 mg/kg | ED50 ([1]; po, Table 10, Prepn. No., p.o., read-out: ACH ED50 (p.o.)): 66 mg/kg

Cc1cc2ccccc2n1CCC1CCCCN1C (stereo not shown) [Preparation 1Q, 2-methyl-1-[2-(1-methyl-2-piperidinyl)-ethyl]-1H-indole]
inhibition in vivo at 100 mg/kg ([1]; Table 10, Prepn. No.): 30%
